“And” between values parts separate entries of the source, which are not always exact repeats. Equal values may be shown once. Read-outs that look alike come from different tables or passages of the source.
Legend:
[1] = test system: CCRF-CEM cells; assay: cell viability, CTG assay, CCRF-CEM; details: Homo sapiens
Procedure: Data are the mean ± stdev of 3 biological replicates. c Viability of healthy T-cells measured by propidium iodide (PI) exclusion. Data are the mean ± stdev of 8 biological replicates for 1–16 µM AVX420, 5 for 32 µM AVX420 and 2 for 0.5 µM Staurosporine (Stau). d Cell viability measured by CTG assay in cells preincubated with 2.5 mM glutathione (GSH) or 2.5 mM N-acetyl cysteine (NAC) for 30 min before addition of 0.5 or 1 µM AVX420, 0.06 µM RSL-3, or 0.06 µM ML-210 for 24 h. Data are the mean ± stdev of 3 biological replicates. P-values were determined by one-way ANOVA with Dunnett’s correction for multiple testing and **** indicates P < 0.0001. e Cell viability measured by CTG assay. CCRF-CEM or Jurkat cells were co-treated with 0.5 µM AVX420 and either arachidonic acid (AA) at concentrations ranging from 1 to 100 µM or a mixture of 9 eicosanoids: 6-keto prostaglandin F1α, Thromboxane B2, prostaglandin F2α, prostaglandin E2, prostaglandin D2, 12(S)-HHTrE, 15(S)-HETE,12(S)-HETE, 5(S)-HETE at a final concentration of 2 ng/mL each (EIC-mix) for 24 h. Data are the mean ± stdev of 3 biological replicates. P-values were determined by two-way ANOVA with Sidak’s correction for multiple comparisons. f Proportion of intracellular ROS-positive cells measured by ROS-red staining and flow cytometry. Cells were treated with indicated concentrations of AVX420 (µM), 1 mM H2O2, 1 µM RSL-3, or 1 µM doxorubicin (dox) for 4 h. Data are the mean ± stdev of 3 biological replicates. g Intracellular ROS measurements in CCRF-CEM cells treated with AVX420 (0.5 µM), AVX002 (8 µM), or AACOCF3 (8 µM) for 4 h.
All cell lines were confirmed to be free of mycoplasma contamination. The cell lines were not authenticated. MV-4-11 were cultured in Iscove’s Modified Dulbecco’s Medium (Sigma, I3390). CCRF-CEM, Jurkat E6.1, and HL-60 cells were cultured in RPMI 1640 Medium RPMI-1640 medium (Sigma, R5886).

[2] = test system: Jurkat E6.1 cells; assay: intracellular ROS, ROS-red staining and flow cytometry, Jurkat E6.1; type: cell-based, human; parameters: ROS Negative Cells / ROS Negative Cells (Figure S9 a) / ROS Negative Cells (Figure S9c): unit not given here; details: for ROS Negative Cells (Figure S9 a) / ROS Positive Cells (Figure S9 a): replicates; for ROS Negative Cells (Figure S9 a) / ROS Positive Cells (Figure S9 a) / ROS Negative Cells / ROS Positive Cells: listed as AVX420; for ROS Negative Cells (Figure S9c) / ROS Positive Cells (Figure S9c): rep1, rep2
Procedure: Data are the mean ± stdev of 3 biological replicates. […] Data are the mean ± stdev of 3 biological replicates.
Rather, when combined with AVX420, exogenous AA augmented cell death (Fig. 6e). […] The response occurred within 1 h, peaked at 8–12 h, and preceded the loss of cell viability (Fig. S9a, b).
After treatment, cells were stained with cellular ROS Assay Kit (Cat. No. ab186029; Abcam, Cambridge, United Kingdom) following the manufacturer’s instructions, and ROS-positive cells were quantified by flow cytometry using either the NovoCyte flow cytometer, and Novoexpress Software v1.5.0 from Agilent Technologies (Santa Clara, USA) or the CytoFLEX flow cytometer and CytExpert analysis software v 2.5 from Beckman Coulter (California, United States). An example showing the gating strategy used to assess ROS-Red staining is found in Fig. S9d.

In the case of `CCCCCCCOc1ccc(OCC(=O)c2nc(C(=O)OC)cs2)cc1` [GK420], the viability at 0.007 µM ([1]; 24 h, read-out: cell viability (0 µM = 100), CCRF-CEM, 0.007 µM, 24H) is reported as 98%, the viability at 0.015 µM ([1]; 24 h, read-out: cell viability (0 µM = 100), CCRF-CEM, 0.015 µM, 24H) is reported as 98% and the viability at 0.031 µM ([1]; 24 h, read-out: cell viability (0 µM = 100), CCRF-CEM, 0.031 µM, 24H) is reported as 98%. The viability at 0.062 µM ([1]; 24 h, read-out: cell viability (0 µM = 100), CCRF-CEM, 0.062 µM, 24H) was 98%, the viability at 0.25 µM ([1]; 24 h, read-out: cell viability (0 µM = 100), CCRF-CEM, 0.25 µM, 24H) was 68% and the viability at 0.5 µM ([1]; 24 h, read-out: cell viability (0 µM = 100), CCRF-CEM, 0.5 µM, 24H) was 49%. It also gave a viability at 1 µM ([1]; 24 h, read-out: cell viability (0 µM = 100), CCRF-CEM, 1 µM, 24H) of 27%, a viability at 2 µM ([1]; 24 h, read-out: cell viability (0 µM = 100), CCRF-CEM, 2 µM, 24H) of 14% and a viability at 0.007 µM ([1]; 48 h, read-out: cell viability (0 µM = 100), CCRF-CEM, 0.007 µM, 48H) of 94%. It also gave a viability at 0.015 µM ([1]; 48 h, read-out: cell viability (0 µM = 100), CCRF-CEM, 0.015 µM, 48H) of 95%, a viability at 0.031 µM ([1]; 48 h, read-out: cell viability (0 µM = 100), CCRF-CEM, 0.031 µM, 48H) of 87% and a viability at 0.062 µM ([1]; 48 h, read-out: cell viability (0 µM = 100), CCRF-CEM, 0.062 µM, 48H) of 85%. For the same compound, the viability at 0.125 µM ([1]; 48 h, read-out: cell viability (0 µM = 100), CCRF-CEM, 0.125 µM, 48H) was 67%, the viability at 0.25 µM ([1]; 48 h, read-out: cell viability (0 µM = 100), CCRF-CEM, 0.25 µM, 48H) was 41% and the viability at 0.5 µM ([1]; 48 h, read-out: cell viability (0 µM = 100), CCRF-CEM, 0.5 µM, 48H) was 17%. The viability at 1 µM ([1]; 48 h, read-out: cell viability (0 µM = 100), CCRF-CEM, 1 µM, 48H) was 9%, the viability at 2 µM ([1]; 48 h, read-out: cell viability (0 µM = 100), CCRF-CEM, 2 µM, 48H) was 4% and the viability at 0.007 µM ([1]; 72 h, read-out: cell viability (0 µM = 100), CCRF-CEM, 0.007 µM, 72H) was 82%. It also gave a viability at 0.015 µM ([1]; 72 h, read-out: cell viability (0 µM = 100), CCRF-CEM, 0.015 µM, 72H) of 78%, a viability at 0.031 µM ([1]; 72 h, read-out: cell viability (0 µM = 100), CCRF-CEM, 0.031 µM, 72H) of 76% and a viability at 0.062 µM ([1]; 72 h, read-out: cell viability (0 µM = 100), CCRF-CEM, 0.062 µM, 72H) of 67%. For the same compound, the viability at 0.125 µM ([1]; 72 h, read-out: cell viability (0 µM = 100), CCRF-CEM, 0.125 µM, 72H) was 40%, the viability at 0.25 µM ([1]; 72 h, read-out: cell viability (0 µM = 100), CCRF-CEM, 0.25 µM, 72H) was 21% and the viability at 0.5 µM ([1]; 72 h, read-out: cell viability (0 µM = 100), CCRF-CEM, 0.5 µM, 72H) was 7%. The viability at 1 µM ([1]; 72 h, read-out: cell viability (0 µM = 100), CCRF-CEM, 1 µM, 72H) was 3.38%, the viability at 2 µM ([1]; 72 h, read-out: cell viability (0 µM = 100), CCRF-CEM, 2 µM, 72H) was 1% and the viability at 4 µM ([1]; 72 h, read-out: cell viability (0 µM = 100), CCRF-CEM, 4 µM, 72H) was 0.214%. For the same compound, the viability at 0.5 µM ([1]; read-out: cell viability (Control = 100), CCRF-CEM, 0.5 µM, VEH) was 52%, the viability at 1 µM ([1]; read-out: cell viability (Control = 100), CCRF-CEM, 1 µM, VEH) was 37% and the “ROS Negative Cells (Figure S9 a)” value ([2]; 1h) was 68 and 69 and 77 and 81. The “ROS Positive Cells (Figure S9 a)” value ([2]; 1h) was 31 and 23 and 19 and 32, the “ROS Negative Cells (Figure S9 a)” value ([2]; 2h) was 46 (2×) and 47 (2×) and 51 and 54 and 50 and 48 and the “ROS Positive Cells (Figure S9 a)” value ([2]; 2h) was 53 (2×) and 49 and 46 and 50 and 54 (2×) and 52. The “ROS Negative Cells (Figure S9 a)” value ([2]; 4h) was 33 (2×) and 32 and 37 and 30 and 29 and 34 (2×), the “ROS Positive Cells (Figure S9 a)” value ([2]; 4h) was 67 (2×) and 68 and 63 and 70 and 71 and 66 (2×) and the “ROS Negative Cells (Figure S9 a)” value ([2]; 8h) was 26 and 27. The “ROS Positive Cells (Figure S9 a)” value ([2]; 8h) was 73 and 74, the “ROS Negative Cells (Figure S9 a)” value ([2]; 12h) was 18 and 19 and 21 and 16 and the “ROS Positive Cells (Figure S9 a)” value ([2]; 12h) was 81 and 79 and 84 and 82. For the same compound, the “ROS Negative Cells (Figure S9 a)” value ([2]; 16h) was 21 and 22 and 18 (2×) and 17 and 19, the “ROS Positive Cells (Figure S9 a)” value ([2]; 16h) was 78 and 82 (2×) and 83 and 81 and 79 and the “ROS Negative Cells (Figure S9 a)” value ([2]; 20h) was 14 and 13 and 15. For the same compound, the “ROS Positive Cells (Figure S9 a)” value ([2]; 20h) was 87 and 85 and 86, the “ROS Negative Cells (Figure S9 a)” value ([2]; 24h) was 13 and 15 and 16 and the “ROS Positive Cells (Figure S9 a)” value ([2]; 24h) was 85 and 84 and 87. The “ROS Negative Cells (Figure S9c)” value ([2]; AVX420 0.5 µM + AA 20 µM) was 80 and 83, the “ROS Positive Cells (Figure S9c)” value ([2]; AVX420 0.5 µM + AA 20 µM) was 20 and 17 and the “ROS Negative Cells (Figure S9c)” value ([2]; AVX420 0.5 µM + Lip 5 µM) was 98 and 99. For the same compound, the “ROS Positive Cells (Figure S9c)” value ([2]; AVX420 0.5 µM + Lip 5 µM) was 2 and 1, the “ROS Negative Cells (Figure S9c)” value ([2]; AVX420 0.5 µM) was 80 and 76 and the “ROS Positive Cells (Figure S9c)” value ([2]; AVX420 0.5 µM) was 20 and 24. For the same compound, the “ROS Negative Cells” value ([2]; Jurkat E6.1, 0.25 µM) was 78 and 75 and 60 and 66, the “ROS Positive Cells” value ([2]; Jurkat E6.1, 0.25 µM) was 22 and 25 and 40 and 34 and the “ROS Negative Cells” value ([2]; Jurkat E6.1, 0.5 µM) was 46 and 45 and 51. For the same compound, the “ROS Positive Cells” value ([2]; Jurkat E6.1, 0.5 µM) was 54 and 55 and 49, the “ROS Negative Cells” value ([2]; Jurkat E6.1, 1 µM) was 19 and 21 and 30 and 22 and the “ROS Positive Cells” value ([2]; Jurkat E6.1, 1 µM) was 81 and 79 and 70 and 78. The “ROS Positive Cells” value ([2]; Jurkat E6.1, 2 µM) was 95 and 93 and 89 and 92 and the “intracellular ROS (iROS)” value ([2]; Jurkat E6.1, 4 h) was “dose-dependent increase”.

Source: PMC11696576, “Next generation thiazolyl ketone inhibitors of cytosolic phospholipase A2 α for targeted cancer therapy” (Nature Communications, 2025)
